# Paper PMC3397428 (Bioorganic & medicinal chemistry, 2012)
# Entries after “also recorded” stand apart in the source; their conditions may differ.
# How the values were obtained:
# PfDHODH = target: T1, PfDHODH (Plasmodium falciparum, UniProt Q08210); experiment: DHODH inhibition, Plasmodium falciparum; type: biochemical
# T1 sequence (Q08210 24-569): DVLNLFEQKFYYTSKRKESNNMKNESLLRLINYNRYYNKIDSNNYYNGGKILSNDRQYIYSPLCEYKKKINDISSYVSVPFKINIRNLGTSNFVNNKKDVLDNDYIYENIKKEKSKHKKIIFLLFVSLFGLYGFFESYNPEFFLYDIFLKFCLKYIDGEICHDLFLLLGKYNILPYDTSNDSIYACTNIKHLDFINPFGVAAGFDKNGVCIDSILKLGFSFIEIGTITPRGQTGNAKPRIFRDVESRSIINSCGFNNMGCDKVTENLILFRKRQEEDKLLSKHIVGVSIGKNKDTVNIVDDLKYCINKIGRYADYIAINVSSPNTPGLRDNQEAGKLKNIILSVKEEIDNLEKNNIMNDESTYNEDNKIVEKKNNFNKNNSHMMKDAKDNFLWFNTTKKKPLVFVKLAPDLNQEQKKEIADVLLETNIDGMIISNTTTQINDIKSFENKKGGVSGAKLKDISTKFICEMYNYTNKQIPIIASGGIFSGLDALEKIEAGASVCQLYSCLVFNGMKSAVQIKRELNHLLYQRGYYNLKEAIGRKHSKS
# [1] = tested on: B16-F10 mouse melanoma tumor cells; experiment: B16-F10 syngeneic mouse melanoma model; type: in vivo; details: athymic mice, 35 mg/kg IP 3 × weekly (M, W, F) for two weeks
# [2] = Dose-finding study in athymic mice; details: 35 mg/kg three times weekly for 4 weeks
SMILES,IC50 (PfDHODH) [µM],growth rate of primary B16-F10 tumor [1],loss in weight in dose-finding study [2],toxicity in dose-finding study [2]
"Nc1nc2c(c(Nc3cccc(Br)c3)n1)-c1ccccc1C2 [Compound 8, N^4-(3-Bromophenyl)-9H-indeno[2,1-d]pyrimidine-2,4-diamine]",≥ 200,,,
"Nc1nc2c(c(Nc3ccc(Cl)cc3F)n1)-c1ccccc1C2 [Compound 13, N^4-(4-Chloro-2-fluorophenyl)-9H-indeno[2,1-d]pyrimidine-2,4-diamine]",≥ 200,,,
"COc1cccc(Nc2nc(N)nc3c2-c2ccccc2C3)c1 [Compound 11, N^4-(3-Methoxyphenyl)-9H-indeno[2,1-d]pyrimidine-2,4-diamine]",≥ 200,,,
"Nc1nc2c(c(Nc3cccc(F)c3)n1)-c1ccccc1C2 [Compound 4, N^4-(3-Fluorophenyl)-9H-indeno[2,1-d]pyrimidine-2,4-diamine]",≥ 200,,,
"Nc1nc2c(c(Nc3ccc(Cl)cc3)n1)-c1ccccc1C2 [Compound 7, N^4-(4-Chlorophenyl)-9H-indeno[2,1-d]pyrimidine-2,4-diamine]",≥ 200,equipotent with the standard 21; also recorded: decreased tumor growth rate,no significant loss in weight,no apparent toxicity
"Nc1nc2c(c(Nc3ccccc3)n1)-c1ccccc1C2 [Compound 1, N^4-Phenyl-9H-indeno[2,1-d]pyrimidine-2,4-diamine]",≥ 200,,,
